From US6613738B1, “Cyclic lipopeptide from Cryptosporiopsis quercina possessing antifungal activity” (HMV Corporation, priority 1998, dated 2003)
Numbered stars: 1 amine (or outer) side, 2 acyl side, 3 side chain; on linkers, the order of the positions; unused ones are H or OH. Bridge positions count the residues as written; N and C are the ends. Square brackets hold non-standard residues; d marks the D form. Peptide text beside a SMILES is read from it. * marks the point of attachment. ξ: configuration not given here. ξOrn(4,5-diOH) = O=C(C(CC(O)C(O)N[*:3])N[*:1])[*:2]; ξhTyr(βξ-OH,γξ-OH) = NC(C(=O)O)C(O)C(O)c1ccc(O)cc1; X1 = O=C(C1C(O)C(CO)CN1[*:1])[*:2]; Palmitoyl = CCCCCCCCCCCCCCCC(=O)*; Hyp = O=C(O)[CH]1C[CH](O)CN1

Columns and labels:
Candida albicans = assay: MIC, microbroth dilution assay (NCCLS); assay type: cell-based
Cryptococcus neoformans = assay: MIC, microbroth dilution assay (NCCLS); assay type: cell-based
Aspergillus fumigatus = assay: MIC, microbroth dilution assay (NCCLS); assay type: cell-based
Candida parasilopsis = assay: MIC, microbroth dilution assay (NCCLS); assay type: cell-based
Histoplasma capsulatum = assay type: cell-based
nail and skin infections = assay: Nail and skin infections with human volunteers; assay type: in vivo

Compound	Minimum Inhibitory Concentration (Candida albicans) [µg/mL]	Minimum Inhibitory Concentration (Cryptococcus neoformans) [µg/mL]	effect on fungus (in words) (Cryptococcus neoformans)	Minimum Inhibitory Concentration (Aspergillus fumigatus) [µg/mL]	effect on fungus (in words) (Aspergillus fumigatus)	Minimum Inhibitory Concentration (Candida parasilopsis) [µg/mL]	Minimum Inhibitory Concentration (Histoplasma capsulatum) [µg/mL]	results on nail and skin infections (nail and skin infections)
CCCCCCCCCCCCCCCC(=O)NC1CC(O)C(O)NC(=O)C2C(O)C(CO)CN2C(=O)C(CCC(N)=O)NC(=O)C(C(O)C(O)c2ccc(O)cc2)NC(=O)C2CC(O)CN2C(=O)C(C(C)O)NC1=O (stereo not drawn) [Cryptocandin] (Palmitoyl-[ξOrn(4,5-diOH)]T[Hyp][ξhTyr(βξ-OH,γξ-OH)]Q[X1]; lactam 1-C; configuration not given here)	0.03	>20	little effect	>20	little effect	2.5	0.01	promising results
C[C@@H]1[C@H](O)[C@@H](C)/C=C/C=C/C=C/C=C/C=C/C=C/C=C/[C@H](O[C@@H]2O[C@H](C)[C@@H](O)[C@H](N)[C@@H]2O)C[C@@H]2O[C@](O)(C[C@@H](O)C[C@@H](O)[C@H](O)CC[C@@H](O)C[C@@H](O)CC(=O)O[C@H]1C)C[C@H](O)[C@H]2C(=O)O [Amphotericin B, reference compound]	0.04	0.04	–	0.03	–	0.01	0.01	–
Echinocandin B [reference compound]	0.3	>20	–	>20	–	–	–	–
